Test results published in PubChem BioAssay (NCI).
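Dose response: 5 concentrations. Exposure: 48 h. Format: 96-well plates. Endpoint: linear interpolation; highest concentration if not reached. At the GI50, growth is halved. Definition used: TGI = concentration required for complete inhibition of growth.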

What was measured:
Assay in all cases: NCI tumour cell line growth inhibition, 48 h
CAKI-1 renal = tested on: CAKI-1 renal
MCF7 breast = tested on: MCF7 breast
RXF 393 renal = tested on: RXF 393 renal
SNB-75 CNS = tested on: SNB-75 CNS
OVCAR-5 ovarian = tested on: OVCAR-5 ovarian
K-562 leukemia = tested on: K-562 leukemia
U251 CNS = tested on: U251 CNS
MDA-MB-231 breast = tested on: MDA-MB-231 breast
CCRF-CEM leukemia = tested on: CCRF-CEM leukemia
SF-539 CNS = tested on: SF-539 CNS
NCI-H460 lung = tested on: NCI-H460 lung
SK-MEL-2 melanoma = tested on: SK-MEL-2 melanoma
TK-10 renal = tested on: TK-10 renal
DU-145 prostate = tested on: DU-145 prostate
MALME-3M melanoma = tested on: MALME-3M melanoma
A498 renal = tested on: A498 renal
M14 melanoma = tested on: M14 melanoma
LOX IMVI melanoma = tested on: LOX IMVI melanoma
IGROV1 ovarian = tested on: IGROV1 ovarian
MDA-MB-468 breast = tested on: MDA-MB-468 breast
HOP-92 NSCLC = tested on: HOP-92 NSCLC
OVCAR-3 ovarian = tested on: OVCAR-3 ovarian
NCI-H226 lung = tested on: NCI-H226 lung
SF-295 CNS = tested on: SF-295 CNS
HL-60(TB) leukemia = tested on: HL-60(TB) leukemia
RPMI-8226 leukemia = tested on: RPMI-8226 leukemia
T-47D breast = tested on: T-47D breast
786-0 renal = tested on: 786-0 renal
OVCAR-4 ovarian = tested on: OVCAR-4 ovarian
HCT-116 colon = tested on: HCT-116 colon
A549 NSCLC = tested on: A549 NSCLC
COLO 205 colon = tested on: COLO 205 colon
HCC-2998 colon = tested on: HCC-2998 colon
PC-3 prostate = tested on: PC-3 prostate
SN12C renal = tested on: SN12C renal
SR leukemia = tested on: SR leukemia
MOLT-4 leukemia = tested on: MOLT-4 leukemia
NCI-H522 lung = tested on: NCI-H522 lung
HOP-62 NSCLC = tested on: HOP-62 NSCLC
UO-31 renal = tested on: UO-31 renal
SF-268 CNS = tested on: SF-268 CNS
SK-MEL-28 melanoma = tested on: SK-MEL-28 melanoma
SW-620 colon = tested on: SW-620 colon
KM12 colon = tested on: KM12 colon
ACHN renal = tested on: ACHN renal
HCT-15 colon = tested on: HCT-15 colon
SK-MEL-5 melanoma = tested on: SK-MEL-5 melanoma
HS 578T breast = tested on: HS 578T breast
SK-OV-3 ovarian = tested on: SK-OV-3 ovarian
NCI/ADR-RES ovarian = tested on: NCI/ADR-RES ovarian
NCI-H23 lung = tested on: NCI-H23 lung
BT-549 breast = tested on: BT-549 breast
MDA-MB-435 = tested on: MDA-MB-435
SNB-19 CNS = tested on: SNB-19 CNS
UACC-257 melanoma = tested on: UACC-257 melanoma
EKVX NSCLC = tested on: EKVX NSCLC
UACC-62 melanoma = tested on: UACC-62 melanoma
OVCAR-8 ovarian = tested on: OVCAR-8 ovarian
HT29 colon = tested on: HT29 colon

## CC1(c2ccccc2)NC(=O)N(CC(=O)Nc2ccc(C(=O)/C=C/c3ccc(Cl)cc3)cc2)C1=O (stereo not drawn)
CAKI-1 renal
  GI50: 5.51 µM
  TGI: 20.7 µM
MCF7 breast
  GI50: 1.96 µM
  TGI: 5.28 µM
RXF 393 renal
  GI50: 2.97 µM
  TGI: 13.6 µM
SNB-75 CNS
  GI50: 1.48 µM
  TGI: 21.8 µM
OVCAR-5 ovarian
  GI50: 13.3 µM
  TGI: 29 µM
K-562 leukemia
  GI50: 3.09 µM
  TGI: 13.1 µM
U251 CNS
  GI50: 3.16 µM
  TGI: 14.3 µM
MDA-MB-231 breast
  GI50: 5.97 µM
  TGI: 21.6 µM
CCRF-CEM leukemia
  GI50: 4 µM
  TGI: 30.8 µM
SF-539 CNS
  GI50: 6.15 µM
  TGI: 19.1 µM
NCI-H460 lung
  GI50: 12 µM
  TGI: 27.8 µM
SK-MEL-2 melanoma
  GI50: 11.5 µM
  TGI: 28 µM
TK-10 renal
  GI50: 10.8 µM
  TGI: 35.4 µM
DU-145 prostate
  GI50: 12.3 µM
  TGI: 26.2 µM
MALME-3M melanoma
  GI50: 13.1 µM
  TGI: 30.8 µM
A498 renal
  GI50: 14.4 µM
  TGI: 38.2 µM
M14 melanoma
  GI50: 3.22 µM
  TGI: 12 µM
LOX IMVI melanoma
  GI50: 2.95 µM
  TGI: 11.1 µM
IGROV1 ovarian
  GI50: 9.27 µM
  TGI: 22.3 µM
MDA-MB-468 breast
  GI50: 2.85 µM
  TGI: 12.3 µM
HOP-92 NSCLC
  GI50: 6.25 µM
  TGI: 53.7 µM
OVCAR-3 ovarian
  GI50: 7.1 µM
  TGI: 21.9 µM
NCI-H226 lung
  GI50: 9.09 µM
  TGI: 52.3 µM
SF-295 CNS
  GI50: 4.34 µM
  TGI: 16.6 µM
HL-60(TB) leukemia
  GI50: 4.06 µM
  TGI: 30.9 µM
RPMI-8226 leukemia
  GI50: 1.93 µM
  TGI: 5.07 µM
T-47D breast
  GI50: 2.59 µM
  TGI: 14.6 µM
786-0 renal
  GI50: 7.48 µM
  TGI: 21 µM
OVCAR-4 ovarian
  GI50: 7.35 µM
  TGI: 36.1 µM
HCT-116 colon
  GI50: 1.37 µM
  TGI: 2.8 µM
A549 NSCLC
  GI50: 4.25 µM
  TGI: 20 µM
COLO 205 colon
  GI50: 13.2 µM
  TGI: 29.7 µM
HCC-2998 colon
  GI50: 1.79 µM
  TGI: 3.63 µM
PC-3 prostate
  GI50: 3.61 µM
  TGI: 27.6 µM
SN12C renal
  GI50: 7.96 µM
  TGI: 25.4 µM
SR leukemia
  GI50: 2.99 µM
  TGI: > 100 µM
MOLT-4 leukemia
  GI50: 3.02 µM
  TGI: 23.1 µM
NCI-H522 lung
  GI50: 6.69 µM
  TGI: 30 µM
HOP-62 NSCLC
  GI50: 12.5 µM
  TGI: 29.8 µM
UO-31 renal
  GI50: 4.06 µM
  TGI: 18 µM
SF-268 CNS
  GI50: 6.51 µM
  TGI: 31.5 µM
SK-MEL-28 melanoma
  GI50: 10.8 µM
  TGI: 23.2 µM
SW-620 colon
  GI50: 5.93 µM
  TGI: 20.7 µM
KM12 colon
  GI50: 2.54 µM
  TGI: 6.87 µM
ACHN renal
  GI50: 4.92 µM
  TGI: 17.7 µM
HCT-15 colon
  GI50: 4.55 µM
  TGI: 18.4 µM
SK-MEL-5 melanoma
  GI50: 4.72 µM
  TGI: 16.6 µM
HS 578T breast
  GI50: 12.7 µM
  TGI: > 100 µM
SK-OV-3 ovarian
  GI50: 16 µM
  TGI: 44.6 µM
NCI/ADR-RES ovarian
  GI50: 13.5 µM
  TGI: 46.4 µM
NCI-H23 lung
  GI50: 11.7 µM
  TGI: 24.8 µM
BT-549 breast
  GI50: 4.78 µM
  TGI: 19 µM
MDA-MB-435
  GI50: 2.15 µM
  TGI: 4.83 µM
SNB-19 CNS
  GI50: 11.2 µM
  TGI: 24.4 µM
UACC-257 melanoma
  GI50: 11.3 µM
  TGI: 25.7 µM
EKVX NSCLC
  GI50: 4.64 µM
  TGI: 23.5 µM
UACC-62 melanoma
  GI50: 4.07 µM
  TGI: 17.8 µM
OVCAR-8 ovarian
  GI50: 10.7 µM
  TGI: 52.5 µM
HT29 colon
  GI50: 3.7 µM
  TGI: 15.7 µM
